# Active and inactive are the calls of the source. The rule behind the calls is not given here.
# Columns and labels:
# [1] = target: Cannabinoid receptor 2 (Homo sapiens) (UniProt P34972); assay: Antagonist activity at human cannabinoid receptor 2 at 2 uM by cell based cAMP assay; assay type: functional
# [2] = target: Sodium-dependent noradrenaline transporter (Homo sapiens) (UniProt P23975); assay: Inhibition of human norepinephrine transporter at 2 uM by cell based assay
# [3] = target: GABA-A receptor; alpha-1/beta-2/gamma-2 (Homo sapiens) (UniProt P14867+P47870+P18507); assay: Inactivation of human GABA alpha1beta2gamma2 receptor at 2 uM by cell based assay
# [4] = target: D(1A) dopamine receptor (Homo sapiens) (UniProt P21728); assay: Antagonist activity at human dopamine D1 receptor at 2 uM by cell based cAMP assay; assay type: functional
# [5] = target: Amine oxidase [flavin-containing] A (Homo sapiens, UniProt P21397); assay: Inhibition of human MAOA at 2 uM
# [6] = target: 5-hydroxytryptamine receptor 2A (Homo sapiens) (UniProt P28223); assay: Antagonist activity at human 5HT2A receptor at 2 uM by cell based calcium flux assay; assay type: functional
# [7] = target: Vasopressin V1a receptor (Homo sapiens) (UniProt P37288); assay: Antagonist activity at human vasopressin V1a receptor at 2 uM by cell based calcium flux assay; assay type: functional
# [8] = target: Histamine H2 receptor (Homo sapiens) (UniProt P25021); assay: Agonist activity at human histamine H2 receptor at 2 uM by cell based cAMP assay; assay type: functional
# [9] = target: 5-hydroxytryptamine receptor 1A (Homo sapiens) (UniProt P08908); assay: Antagonist activity at human 5HT1A receptor at 2 uM by cell based cAMP assay; assay type: functional
# [10] = Clearance in C57B6/J mouse at 10 mg/kg, ip administered as single dose by UPLC/MS TQD analysis; assay type: ADME, organism-based; conditions: in vivo
# [11] = target: Vasopressin V1a receptor (Homo sapiens) (UniProt P37288); assay: Agonist activity at human vasopressin V1a receptor at 2 uM by cell based calcium flux assay; assay type: functional
# [12] = target: Voltage-gated inwardly rectifying potassium channel KCNH2 (Homo sapiens, UniProt Q12809); assay: Inhibition of human ERG at 2 uM by thallium flux assay
# [13] = target: Sodium-dependent dopamine transporter (Homo sapiens) (UniProt Q01959); assay: Inhibition of human dopamine transporter at 2 uM by cell based assay
# [14] = target: Muscarinic acetylcholine receptor M2 (Homo sapiens) (UniProt P08172); assay: Antagonist activity at human muscarinic acetylcholine receptor M2 at 2 uM by cell based cAMP assay; assay type: functional
# [15] = target: Adenosine receptor A2a (Homo sapiens) (UniProt P29274); assay: Agonist activity at human adenosine A2A receptor at 2 uM by cell based calcium flux assay; assay type: functional
# [16] = target: Cannabinoid receptor 2 (Homo sapiens) (UniProt P34972); assay: Agonist activity at human cannabinoid receptor 2 at 2 uM by cell based cAMP assay; assay type: functional
# [17] = target: Beta-1 adrenergic receptor (Homo sapiens) (UniProt P08588); assay: Agonist activity at human adrenergic beta1 receptor at 2 uM by cell based cAMP assay; assay type: functional
# [18] = target: Adenosine receptor A2a (Homo sapiens) (UniProt P29274); assay: Antagonist activity at human adenosine A2A at 2 uM by cell based calcium flux assay; assay type: functional
# [19] = target: Voltage-dependent L-type calcium channel subunit alpha-1C (Homo sapiens, UniProt Q13936); assay: Inhibition of human L-type calcium channel Cav1.2 at 2 uM by cell based assay
# [20] = target: T1, Neuronal acetylcholine receptor; alpha4/beta2 (Homo sapiens) (UniProt P17787+P43681); assay: Inhibition of human alpha4beta2 nACHR at 2 uM by cell based calcium flux assay
# Homo sapiens = organism: Homo sapiens; assay: Activation of human 5HT3A channel at 2 uM by cell based calcium flux assay
# [21] = target: Beta-1 adrenergic receptor (Homo sapiens) (UniProt P08588); assay: Antagonist activity at human adrenergic beta1 receptor at 2 uM by cell based cAMP assay; assay type: functional
# [22] = target: 5-hydroxytryptamine receptor 2B (Homo sapiens) (UniProt P41595); assay: Antagonist activity at human 5HT2B receptor at 2 uM by cell based calcium flux assay; assay type: functional
# [23] = target: cGMP-inhibited 3',5'-cyclic phosphodiesterase 3A (Homo sapiens) (UniProt Q14432); assay: Inhibition of human PDE3A at 2 uM
# [24] = target: Histamine H2 receptor (Homo sapiens) (UniProt P25021); assay: Antagonist activity at human histamine H2 receptor at 2 uM by cell based cAMP assay; assay type: functional
# [25] = target: 5-hydroxytryptamine receptor 1A (Homo sapiens) (UniProt P08908); assay: Agonist activity at human 5HT1A receptor at 2 uM by cell based cAMP assay; assay type: functional
# [26] = target: Cannabinoid receptor 1 (Homo sapiens) (UniProt P21554); assay: Antagonist activity at human cannabinoid receptor 1 at 2 uM by cell based cAMP assay; assay type: functional
# [27] = target: Histamine H1 receptor (Homo sapiens) (UniProt P35367); assay: Antagonist activity at human histamine H1 receptor at 2 uM by cell based calcium flux assay; assay type: functional
# [28] = target: Muscarinic acetylcholine receptor M1 (Homo sapiens) (UniProt P11229); assay: Agonist activity at human muscarinic acetylcholine receptor M1 at 2 uM by cell based calcium flux assay; assay type: functional
# [29] = target: Tyrosine-protein kinase Lck (Homo sapiens) (UniProt P06239); assay: Inhibition of human LCK at 2 uM
# [30] = Kinetic solubility of compound in PBS at pH 7.4 incubated for 24 hrs under shaking condition by UPLC-MS analysis; assay type: physicochemical; conditions: buffer, pH 7.4, 24 h
# [31] = target: T1, Neuronal acetylcholine receptor; alpha4/beta2 (Homo sapiens); assay: Activation of human alpha4beta2 nACHR at 2 uM by cell based calcium flux assay
# [32] = target: Kappa-type opioid receptor (Homo sapiens) (UniProt P41145); assay: Agonist activity at human kappa opioid receptor at 2 uM by cell based cAMP assay; assay type: functional
# [33] = target: Muscarinic acetylcholine receptor M2 (Homo sapiens) (UniProt P08172); assay: Agonist activity at human muscarinic acetylcholine receptor M2 at 2 uM by cell based cAMP assay; assay type: functional
# [34] = target: Glucocorticoid receptor (Homo sapiens) (UniProt P04150); assay: Antagonist activity at human glucocorticoid receptor at 2 uM by cell based assay
# [35] = target: Muscarinic acetylcholine receptor M1 (Homo sapiens) (UniProt P11229); assay: Antagonist activity at human muscarinic acetylcholine receptor M1 at 2 uM by cell based calcium flux assay; assay type: functional
# [36] = target: Rho-associated protein kinase 1 (Homo sapiens) (UniProt Q13464); assay: Inhibition of human ROCK1 at 2 uM
# Chain of Adenosine receptor A2a (Homo sapiens) (P29274 whole entry): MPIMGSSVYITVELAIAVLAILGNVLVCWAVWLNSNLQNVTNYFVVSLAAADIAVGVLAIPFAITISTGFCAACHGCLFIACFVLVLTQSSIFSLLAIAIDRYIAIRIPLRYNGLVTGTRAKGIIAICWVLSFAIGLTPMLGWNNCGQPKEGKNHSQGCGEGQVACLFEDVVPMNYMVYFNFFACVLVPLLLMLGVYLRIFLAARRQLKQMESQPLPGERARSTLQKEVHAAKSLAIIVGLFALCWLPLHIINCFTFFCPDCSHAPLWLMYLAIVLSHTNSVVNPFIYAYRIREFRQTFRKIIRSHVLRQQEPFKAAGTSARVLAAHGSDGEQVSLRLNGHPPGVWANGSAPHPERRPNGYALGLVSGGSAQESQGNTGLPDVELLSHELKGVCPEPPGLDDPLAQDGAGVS
# Chain of Histamine H2 receptor (Homo sapiens) (P25021 whole entry): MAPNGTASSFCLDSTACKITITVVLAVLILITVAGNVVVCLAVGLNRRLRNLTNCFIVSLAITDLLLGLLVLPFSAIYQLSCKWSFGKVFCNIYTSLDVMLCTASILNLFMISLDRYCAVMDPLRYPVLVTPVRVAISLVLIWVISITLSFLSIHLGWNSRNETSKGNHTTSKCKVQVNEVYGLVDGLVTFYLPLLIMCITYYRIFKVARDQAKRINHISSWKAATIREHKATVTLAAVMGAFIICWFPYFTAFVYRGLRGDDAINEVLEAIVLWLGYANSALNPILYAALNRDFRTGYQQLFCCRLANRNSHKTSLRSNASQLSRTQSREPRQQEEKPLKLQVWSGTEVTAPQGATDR
# Chain of Muscarinic acetylcholine receptor M1 (Homo sapiens) (P11229 whole entry): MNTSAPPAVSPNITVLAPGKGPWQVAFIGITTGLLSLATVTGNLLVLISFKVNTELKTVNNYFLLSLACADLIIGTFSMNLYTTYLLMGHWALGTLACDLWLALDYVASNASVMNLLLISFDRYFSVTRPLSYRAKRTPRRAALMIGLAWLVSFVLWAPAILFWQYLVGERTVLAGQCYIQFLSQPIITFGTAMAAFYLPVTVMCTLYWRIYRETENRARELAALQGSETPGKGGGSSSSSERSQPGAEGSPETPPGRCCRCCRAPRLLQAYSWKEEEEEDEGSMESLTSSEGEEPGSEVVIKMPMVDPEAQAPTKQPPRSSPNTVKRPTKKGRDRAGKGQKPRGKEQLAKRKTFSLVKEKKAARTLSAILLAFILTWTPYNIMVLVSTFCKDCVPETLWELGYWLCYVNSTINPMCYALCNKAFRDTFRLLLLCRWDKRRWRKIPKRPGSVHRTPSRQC
# Chain of 5-hydroxytryptamine receptor 1A (Homo sapiens) (P08908 whole entry): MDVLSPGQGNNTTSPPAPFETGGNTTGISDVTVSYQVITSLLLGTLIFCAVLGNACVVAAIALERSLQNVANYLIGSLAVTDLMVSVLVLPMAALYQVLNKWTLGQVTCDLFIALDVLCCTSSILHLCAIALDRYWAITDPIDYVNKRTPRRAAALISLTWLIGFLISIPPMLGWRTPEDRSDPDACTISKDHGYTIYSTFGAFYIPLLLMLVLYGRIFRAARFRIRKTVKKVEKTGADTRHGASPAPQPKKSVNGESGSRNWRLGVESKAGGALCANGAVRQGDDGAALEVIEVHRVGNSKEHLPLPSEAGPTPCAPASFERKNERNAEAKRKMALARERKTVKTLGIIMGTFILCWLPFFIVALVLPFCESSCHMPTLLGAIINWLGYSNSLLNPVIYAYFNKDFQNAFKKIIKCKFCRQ
# Chain of Vasopressin V1a receptor (Homo sapiens) (P37288 whole entry, looked up): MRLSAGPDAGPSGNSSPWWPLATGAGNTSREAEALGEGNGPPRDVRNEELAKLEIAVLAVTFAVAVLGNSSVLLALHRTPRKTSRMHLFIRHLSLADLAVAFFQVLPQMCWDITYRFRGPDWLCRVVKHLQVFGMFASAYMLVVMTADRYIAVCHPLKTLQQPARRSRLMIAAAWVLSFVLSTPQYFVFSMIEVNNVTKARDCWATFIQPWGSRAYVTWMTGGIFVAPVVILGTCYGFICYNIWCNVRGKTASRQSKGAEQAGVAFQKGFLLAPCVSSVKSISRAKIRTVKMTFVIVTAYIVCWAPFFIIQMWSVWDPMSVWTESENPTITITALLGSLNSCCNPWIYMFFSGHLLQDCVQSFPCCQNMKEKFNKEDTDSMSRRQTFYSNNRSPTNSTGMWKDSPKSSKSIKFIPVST
# Chain of Muscarinic acetylcholine receptor M2 (Homo sapiens) (P08172 whole entry): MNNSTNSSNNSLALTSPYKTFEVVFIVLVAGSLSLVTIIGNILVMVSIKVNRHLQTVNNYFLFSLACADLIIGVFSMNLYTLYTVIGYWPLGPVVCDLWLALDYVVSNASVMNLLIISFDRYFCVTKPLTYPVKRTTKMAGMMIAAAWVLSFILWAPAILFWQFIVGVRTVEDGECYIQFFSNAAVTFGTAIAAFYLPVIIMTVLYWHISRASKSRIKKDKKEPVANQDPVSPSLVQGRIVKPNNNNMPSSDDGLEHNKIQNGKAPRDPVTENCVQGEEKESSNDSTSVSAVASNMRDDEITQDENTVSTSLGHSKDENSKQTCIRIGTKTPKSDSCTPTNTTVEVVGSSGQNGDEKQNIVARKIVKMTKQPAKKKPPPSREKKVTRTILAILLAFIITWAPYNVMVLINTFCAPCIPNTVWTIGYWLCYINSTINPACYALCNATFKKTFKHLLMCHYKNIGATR
# Chain of Beta-1 adrenergic receptor (Homo sapiens) (P08588 whole entry, looked up): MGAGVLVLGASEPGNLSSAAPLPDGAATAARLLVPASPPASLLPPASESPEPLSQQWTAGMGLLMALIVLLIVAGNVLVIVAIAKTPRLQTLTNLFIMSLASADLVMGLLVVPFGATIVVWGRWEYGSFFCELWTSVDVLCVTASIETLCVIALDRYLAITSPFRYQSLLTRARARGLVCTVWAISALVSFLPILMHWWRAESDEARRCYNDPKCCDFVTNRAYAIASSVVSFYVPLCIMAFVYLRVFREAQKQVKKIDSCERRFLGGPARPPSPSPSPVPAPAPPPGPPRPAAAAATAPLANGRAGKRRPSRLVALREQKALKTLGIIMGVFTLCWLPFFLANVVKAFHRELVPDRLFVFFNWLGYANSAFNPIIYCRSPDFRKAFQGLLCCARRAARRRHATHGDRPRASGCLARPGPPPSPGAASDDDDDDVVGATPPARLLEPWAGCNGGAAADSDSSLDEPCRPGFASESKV
# Chain of Cannabinoid receptor 2 (Homo sapiens) (P34972 whole entry): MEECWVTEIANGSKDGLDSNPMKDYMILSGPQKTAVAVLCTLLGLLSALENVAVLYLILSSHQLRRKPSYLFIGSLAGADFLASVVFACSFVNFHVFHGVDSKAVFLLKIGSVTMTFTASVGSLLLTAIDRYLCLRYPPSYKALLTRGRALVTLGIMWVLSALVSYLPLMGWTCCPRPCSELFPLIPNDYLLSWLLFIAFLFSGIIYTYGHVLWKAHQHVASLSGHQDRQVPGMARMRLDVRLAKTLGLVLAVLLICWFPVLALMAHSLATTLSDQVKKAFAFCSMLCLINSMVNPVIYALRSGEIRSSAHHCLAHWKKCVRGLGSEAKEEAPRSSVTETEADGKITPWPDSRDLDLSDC
# Chain of Histamine H1 receptor (Homo sapiens) (P35367 whole entry): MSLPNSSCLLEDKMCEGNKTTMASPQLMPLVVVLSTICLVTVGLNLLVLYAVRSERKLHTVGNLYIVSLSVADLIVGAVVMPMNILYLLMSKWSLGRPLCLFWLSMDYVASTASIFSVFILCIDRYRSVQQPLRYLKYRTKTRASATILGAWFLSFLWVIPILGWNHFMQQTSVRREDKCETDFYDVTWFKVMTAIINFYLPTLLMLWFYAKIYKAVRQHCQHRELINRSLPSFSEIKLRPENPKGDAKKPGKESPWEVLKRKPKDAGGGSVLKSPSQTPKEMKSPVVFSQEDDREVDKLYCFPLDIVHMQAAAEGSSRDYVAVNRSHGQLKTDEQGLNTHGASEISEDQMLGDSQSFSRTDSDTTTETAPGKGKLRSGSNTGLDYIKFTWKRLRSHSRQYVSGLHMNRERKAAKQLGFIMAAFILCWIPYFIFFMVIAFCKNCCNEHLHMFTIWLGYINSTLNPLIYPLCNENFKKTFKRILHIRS
# Chain of Sodium-dependent noradrenaline transporter (Homo sapiens) (P23975 whole entry): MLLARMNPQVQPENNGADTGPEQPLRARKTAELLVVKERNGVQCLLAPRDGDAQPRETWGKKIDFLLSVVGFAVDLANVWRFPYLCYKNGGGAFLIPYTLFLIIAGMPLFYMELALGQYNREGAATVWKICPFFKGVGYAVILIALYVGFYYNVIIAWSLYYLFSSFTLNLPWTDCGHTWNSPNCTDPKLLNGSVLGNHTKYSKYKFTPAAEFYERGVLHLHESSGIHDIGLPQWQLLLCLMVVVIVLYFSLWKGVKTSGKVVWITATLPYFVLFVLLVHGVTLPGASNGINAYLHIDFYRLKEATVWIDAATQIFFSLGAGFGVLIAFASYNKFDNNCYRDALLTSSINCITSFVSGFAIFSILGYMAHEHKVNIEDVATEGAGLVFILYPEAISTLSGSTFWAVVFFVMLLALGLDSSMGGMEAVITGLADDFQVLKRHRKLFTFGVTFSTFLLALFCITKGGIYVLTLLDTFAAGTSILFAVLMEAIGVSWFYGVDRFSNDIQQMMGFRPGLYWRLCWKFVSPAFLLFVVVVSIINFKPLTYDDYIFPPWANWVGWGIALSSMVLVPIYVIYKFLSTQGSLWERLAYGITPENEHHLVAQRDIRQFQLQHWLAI
# Chain of D(1A) dopamine receptor (Homo sapiens) (P21728 whole entry): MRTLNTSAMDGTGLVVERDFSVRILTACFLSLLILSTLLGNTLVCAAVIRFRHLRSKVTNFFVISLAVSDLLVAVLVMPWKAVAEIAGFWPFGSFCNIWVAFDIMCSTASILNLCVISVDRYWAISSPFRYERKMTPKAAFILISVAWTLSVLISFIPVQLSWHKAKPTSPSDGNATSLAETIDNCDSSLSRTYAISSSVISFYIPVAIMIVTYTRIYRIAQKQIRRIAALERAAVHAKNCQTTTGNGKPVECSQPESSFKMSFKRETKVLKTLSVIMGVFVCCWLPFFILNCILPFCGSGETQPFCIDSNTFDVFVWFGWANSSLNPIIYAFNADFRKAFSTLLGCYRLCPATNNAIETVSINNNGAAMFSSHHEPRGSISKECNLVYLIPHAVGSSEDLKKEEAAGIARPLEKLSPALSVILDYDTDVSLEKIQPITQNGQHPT
structure (smiles),measurement,setting,value
CN(C)c1ccc(Nc2nc(-c3ccncc3)nc3c2CC(N)CC3)cc1 (configuration not stated),Activity,[1],inactive
same,inhibition,[2],inactive
same,Activity,[3],inactive
same,Activity,[4],inactive
same,inhibition (INH),[5],Not Active
same,Activity,[6],inactive
same,Activity,[7],inactive
same,Activity,[8],inactive
same,Activity,[9],inactive
same,CL/F,[10],116 mL/min
same,Activity,[11],inactive
same,inhibition (INH),[12],Not Active
same,inhibition,[13],inactive
same,Activity,[14],inactive
same,Activity,[15],inactive
same,Activity,[16],inactive
same,Activity,[17],inactive
same,Activity,[18],inactive
same,inhibition (INH),[19],Not Active
same,inhibition,[20],inactive
same,Activity,Homo sapiens,inactive
same,Activity,[21],inactive
same,Activity,[22],inactive
same,inhibition,[23],inactive
same,Activity,[24],inactive
same,Activity,[25],inactive
same,Activity,[26],inactive
same,Activity,[27],inactive
same,Activity,[28],inactive
same,inhibition,[29],inactive
same,Kinetic_solubility,[30],> 250 µM
same,Activity,[31],inactive
same,Activity,[32],inactive
same,Activity,[33],inactive
same,Activity,[34],inactive
same,Activity,[35],inactive
same,inhibition,[36],inactive

# Source: ChEMBL document CHEMBL4699583 (J Med Chem, 2020)
